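Exposure lasted 48 hours, with cells grown in 96-well plates and compounds tested at five concentrations. GI50: concentration for 50% inhibition of growth.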 Active and inactive are the calls of the source. Rule as the data show it: active = GI50 up to about 1.1 µM and inactive = higher.
How the values were obtained:
Assay in all cases: inhibition of tumour cell growth, NCI panel, 48 h
A498 = system: A498
A549 = system: A549
EKVX = system: EKVX
HCC 2998 = system: HCC 2998
HCT-116 = system: HCT-116
HCT-15 = system: HCT-15
IGROV-1 = system: IGROV-1
MOLT-4 = system: MOLT-4
NCI-H522 = system: NCI-H522
OVCAR-3 = system: OVCAR-3
OVCAR-4 = system: OVCAR-4
RPMI-8226 = system: RPMI-8226
SF-268 = system: SF-268
SF-295 = system: SF-295
SF-539 = system: SF-539
SK-MEL-28 = system: SK-MEL-28
SK-MEL-5 = system: SK-MEL-5
SW-620 = system: SW-620
U-251 = system: U-251
UACC-257 = system: UACC-257

SMILES	GI50 (A498)	GI50 (A549)	GI50 (EKVX)	GI50 (HCC 2998)	GI50 (HCT-116)	GI50 (HCT-15) [µM]	GI50 (IGROV-1)	GI50 (MOLT-4)	GI50 (NCI-H522)	GI50 (OVCAR-3)	GI50 (OVCAR-4)	GI50 (RPMI-8226)	GI50 (SF-268)	GI50 (SF-295)	GI50 (SF-539)	GI50 (SK-MEL-28)	GI50 (SK-MEL-5)	GI50 (SW-620)	GI50 (U-251)	GI50 (UACC-257)
O=NN(CCCl)C(=O)NC1CCSc2ccccc21 (stereo not given)	> 100 µM (inactive)	> 100 µM (inactive)	28.3 µM (inactive)	> 100 µM (inactive)	> 100 µM (inactive)	> 100	> 100 µM (inactive)	35.1 µM (inactive)	> 100 µM (inactive)	> 100 µM (inactive)	> 100 µM (inactive)	> 61.4 µM (inactive)	20.9 µM (inactive)	57.8 µM (inactive)	27.4 µM (inactive)	> 58.2 µM (inactive)	> 100 µM (inactive)	> 100 µM (inactive)	58.2 µM (inactive)	> 100 µM (inactive)
N=C1OC(CN2CCN(c3ccccc3)CC2)CN1C(=S)Nc1ccccc1 (stereo not given)	89.9 µM (inactive)	94.8 µM (inactive)	32.6 µM (inactive)	> 100 µM (inactive)	> 100 µM (inactive)	91	92.7 µM (inactive)	44.3 µM (inactive)	28.9 µM (inactive)	42.8 µM (inactive)	> 100 µM (inactive)	54 µM (inactive)	39.4 µM (inactive)	32.7 µM (inactive)	96.2 µM (inactive)	84.3 µM (inactive)	35.8 µM (inactive)	> 100 µM (inactive)	78.7 µM (inactive)	56 µM (inactive)
CS(=O)(=O)OCC1=C(COS(C)(=O)=O)C(=O)c2c(O)ccc(O)c2C1=O	> 100 µM (inactive)	> 100 µM (inactive)	> 100 µM (inactive)	> 100 µM (inactive)	> 100 µM (inactive)	> 100	> 100 µM (inactive)	> 100 µM (inactive)	> 100 µM (inactive)	> 100 µM (inactive)	> 100 µM (inactive)	> 100 µM (inactive)	> 100 µM (inactive)	> 100 µM (inactive)	> 100 µM (inactive)	> 100 µM (inactive)	> 100 µM (inactive)	> 100 µM (inactive)	> 100 µM (inactive)	> 100 µM (inactive)
C=C1C(=O)C[C@@]23CCC[C@@]12CC(O)C3 (stereo not given in full)	15 µM (inactive)	30.3 µM (inactive)	27.3 µM (inactive)	> 46.2 µM (inactive)	19 µM (inactive)	13	3.93 µM (inactive)	23.4 µM (inactive)	2.37 µM (inactive)	13.1 µM (inactive)	18.6 µM (inactive)	15.6 µM (inactive)	43.7 µM (inactive)	37.8 µM (inactive)	25.6 µM (inactive)	21.5 µM (inactive)	10.5 µM (inactive)	18.7 µM (inactive)	40.3 µM (inactive)	18.7 µM (inactive)
[N-]=[N+]=CC(=O)OCC(N)C(=O)O (stereo not given)	0.764 µM (active)	0.557 µM (active)	0.413 µM (active)	0.362 µM (active)	0.403 µM (active)	0.297	1.15 µM (inactive)	0.216 µM (active)	0.54 µM (active)	0.841 µM (active)	14.1 µM (inactive)	0.528 µM (active)	0.685 µM (active)	0.923 µM (active)	0.13 µM (active)	3.35 µM (inactive)	0.847 µM (active)	0.437 µM (active)	0.502 µM (active)	95.9 µM (inactive)
O=C(O)c1nc2ccc(C(F)(F)F)cc2[nH]c1=O	> 100 µM (inactive)	> 100 µM (inactive)	> 100 µM (inactive)	> 100 µM (inactive)	> 100 µM (inactive)	> 100	> 100 µM (inactive)	> 100 µM (inactive)	> 100 µM (inactive)	> 100 µM (inactive)	> 100 µM (inactive)	> 100 µM (inactive)	> 100 µM (inactive)	> 100 µM (inactive)	> 100 µM (inactive)	> 100 µM (inactive)	> 100 µM (inactive)	> 100 µM (inactive)	> 100 µM (inactive)	> 100 µM (inactive)
CCCCCCCNC(P(=O)(O)O)P(=O)(O)O	> 100 µM (inactive)	> 100 µM (inactive)	> 100 µM (inactive)	56.2 µM (inactive)	> 100 µM (inactive)	> 100	> 100 µM (inactive)	> 100 µM (inactive)	> 100 µM (inactive)	> 100 µM (inactive)	> 100 µM (inactive)	62.8 µM (inactive)	> 100 µM (inactive)	> 100 µM (inactive)	> 100 µM (inactive)	> 100 µM (inactive)	97.3 µM (inactive)	> 100 µM (inactive)	> 100 µM (inactive)	> 100 µM (inactive)
